One block for each compound: values may come before it. Peptide text beside a SMILES is read from it.
Legend:
[1] = rat, in vivo
Text: Pain is basically managed by two classes of drugs.

[2] = assay type: physicochemical
Protocol: The test article was SEQ ID NO: 1, a white powder, which was delivered in 0.9% saline. The test article formulations were prepared on the day of study and kept at room temperature until dosing. 100 mg/kg at 1 mL/kg=100 mg/mL 1.4 mL of saline added to 141.5 mg of test article, soluble.

[3] = tested on: Pseudomonas syringae pv tomato, DC3000; experiment: Arabidopsis inoculated with virulent pathogen Pst DC3000, disease symptoms; assay type: in vivo, Arabidopsis ecotype Columbia (Col-0); conditions: 20 μl salicylic acid 1 mM and 20 μl SEQ ID NO: 15 applied together to the leaves
Protocol: Seeds of Arabidopsis ecotype Columbia (Col-0) were planted in potting soil. Plants were cultivated in a growth chamber with 10-h d (200 μmol m^−2s^−1 at 22° C.) and 14-h night (18° C.) cycles and 80% RH. Once a week plants were supplied with water and modified one-half strength Hoagland nutrient solution: 2 mM KNO 5 mM Ca(NO3)2 and trace elements, pH 7.
A virulent plant pathogen, Pst Pseudomonas syringae pv tomato, DC3000 was grown at 28° C. on King's medium B containing 40 mg/L tetracycline. Plants were inoculated with 1×10^7 cfu/ml of the pathogen in 0.01% Silwet L77 (v/v) (a surfactant) and distilled water 5 weeks after sowing. The bacterial suspension or a control solution (0.01% Silwet L77 in water) was then sprayed on the plant once.
Disease symptoms in Arabidopsis are water-soaked, spreading lesions, sometimes surrounded by chlorotic margin that eventually lead to yield loss and plant death.
To test the efficacy of SEQ ID NO: 15, some healthy and some disease plants were sprayed with salicylic acid in 0.01%. Silwet L77; some healthy and some disease plants were sprayed with SEQ ID NO: 15 in 0.01%. Silwet L77, and some healthy and some disease plants were sprayed with salicylic acid in combination with SEQ ID NO: 15 in 0.01%. Silwet L77. A control group of some healthy and some disease plants were sprayed with water in 0.01%. Silwet L77. […]

[4] = tested on: Sauromatum guttatum appendix; experiment: Heat production by Sauromatum guttatum appendix sections, thermocouple recording; conditions: second experiment, up to 50 μM, data not shown
Protocol: In one example, using Sauromatum guttatum as the experimental module, on the day of inflorescence-opening, the Sauromatum appendix (a 20-40 cm-long, slender organ) becomes warm reaching a 32° C. temperature (Skubatz et al., 1991, Plant Physiol. 95:1084-1088). The heat generated by the appendix is generated by the mitochondria. This mitochondrial activity can be triggered by the addition of phenolic compounds, including but not limited to, salicylic acid, aspirin, and 2,6-dihydroxybenzoic acid. Test agents can be applied to the plant and the plant's temperature may be monitored in vivo.
FIG. 4 illustrates modulation of heat generated by aspirin (ASA) in Sauromatum guttatum appendix in the presence of various opioid peptides and the Alzheimer's peptide, Aβ 1-42. One day before heat-production, sections of the appendix were placed in different aqueous solutions containing ASA with or without an opioid peptide. […] Temperature was recorded with thermocouples attached to the section every 5 min. […]
FIG. 5 illustrates modulation of heat generated by salicylic acid (SA) in the presence of human opioid peptides (β-Endorphin, SEQ ID NO: 19 and Neuropeptide AF, SEQ ID NO: 44) and, the Alzheimer's peptide, Aβ 1-42, SEQ ID NO: 49, and, a plant virulent bacterial pathogen (Pst DC3000). […] Temperature was recorded with thermocouples attached to the sections every 5 min. […]

- solubility in saline [2]: soluble
Compound: CC(C)C[C@H](NC(=O)[C@@H](N)Cc1ccccc1)C(=O)N1CCC[C@H]1C(=O)N[C@@H](CO)C(=O)O [SEQ ID NO: 1, Phe-Leu-Pro-Ser] (H-FLPS-OH; N-terminus and C-terminus assumed)
- effect on brain function [1]: does not adversely affect brain function
- feeding behavior [1]: did not invoke an abnormal feeding behavior

Compound: O=C(O)c1ccccc1O [salicylic acid]
- systemic resistance to the virulent bacteria [3]: enough to trigger systemic resistance

Compound: FLPSEFGVDVDR [SEQ ID NO: 2]
- heat generation by the peptide [4]: did not generate heat

Compound: YGGFL [SEQ ID NO: 15]
- systemic resistance to the virulent bacteria [3]: enough to trigger systemic resistance

Reference: patent US20090069237A1, “METHODS AND COMPOSITIONS FOR TREATING CONDITIONS” (priority 2007, published 2009)
